Experiments:
[1] = system: human monocyte-derived DC; assay: DC surface phenotype by flow cytometry after CD40 ligation; assay type: cell-based; details: DEX titration, data not shown
Description: Immature DC were generated from peripheral blood monocyte precursors (PBMC). Human PBMC from healthy donors, isolated through Ficoll-Hypaque density centrifugation were plated at 1.5×10^7 per well in 6-well plates (Costar Corp., Cambridge, Mass.) in RPMI 1640 (Life Technologies, Paisley, Scotland) supplemented with 2 mM glutamine, 100 UI/ml penicillin and 10% FCS. After 2 h at 37° C., the nonadherent cells were removed and the adherent cells were cultured in medium containing 500 U/ml IL-4 (Pepro Tech Inc. Rocky Hill, N.J.) and 800 U/ml GM-CSF (kindly provided by Dr S. Osanto, LUMC, Leiden, NL) for a total of 7 days.
Activation of DC though CD40 was performed with a fusion protein made of the extracellular domain of human CD40L and of the murine CD8a chain (CD 8-CD40L). The CD8-CD40L cDNA described by Garrone et al. (23) was transferred into an eukaryotic expression vector containing the hygromycin resistance gene and used for the generation of stably transfected Chinese Hamster Ovary (CHO) cells. […] DC were incubated at 5×10^5/ml/well in a 24-well plate (Costar Corp., Cambridge, Mass.) and activated in the presence of 1/10 CD8-CD40L supernatant. Cells and supernatants were analyzed after 48 h. […]
Cells were stained on ice with FITC or PE-conjugated mouse monoclonal antibodies (MoAb) for 30 min in PBS 1% FCS and were analyzed on a FACScan® (Becton Dickinson, San Jose, Calif.). […]

[2] = system: human monocyte-derived DC; assay: Cytokine detection by ELISA in DC culture supernatants; assay type: cell-based; details: CD40 triggering of DEX-treated DC vs untreated
Description: Data are representative from 6 independent experiments.
Activation of DC though CD40 was performed with a fusion protein made of the extracellular domain of human CD40L and of the murine CD8a chain (CD 8-CD40L). The CD8-CD40L cDNA described by Garrone et al. (23) was transferred into an eukaryotic expression vector containing the hygromycin resistance gene and used for the generation of stably transfected Chinese Hamster Ovary (CHO) cells. […] DC were incubated at 5×10^5/ml/well in a 24-well plate (Costar Corp., Cambridge, Mass.) and activated in the presence of 1/10 CD8-CD40L supernatant. Cells and supernatants were analyzed after 48 h. Of note, control supernatants obtained from untransfected CHO cells or from CHO cells transfected with the CD8a cDNA lacked DC activating functions and were similar to culture medium.
Culture supernatants were analyzed in serial two-fold dilutions in duplicate. IL-12p70 was detected using a solid phase sandwich ELISA kit (Diaclone Research, Besancon, France) (sensitivity 3 pg/ml). For IL-12p40 and IFN-g detection, capture MoAb and polyclonal biotinylated detection Ab were obtained from Peter van de Meijde (BPRC, Rijswijk, NL) (sensitivity 10 pg/ml). IL-10 was detected using the Pelikine compact human IL-10 ELISA kit (CLB, Amsterdam, NL) (sensitivity 3 pg/ml).

SMILES: C[C@@H]1C[C@H]2[C@@H]3CCC4=CC(=O)C=C[C@]4(C)[C@@]3(F)[C@@H](O)C[C@]2(C)[C@@]1(O)C(=O)CO [DEX, dexamethasone]
- CD40-mediated phenotypic changes ([1]; 10^-9 M): no effect
- CD40-mediated phenotypic changes ([1]; 10^-10): no effect
- enhancement of IL-10 production [2]: up to 50 fold
- reduction of IL-12p40 production [2]: up to 100 fold

— patent publication US7560105B1, “Dendritic cells activated in the presence of glucocorticoid hormones are capable of suppressing antigen-specific T cell responses” (Leids Universitair Medisch Centrum, priority 1999, dated 2009)
